Measured values from PubChem BioAssay AID1259407 (Chemical Carcinogenesis Research Information System (CCRIS), 2018).
Activity calls are given as the source filed them. No rule for the calls is given here.

System: CCRIS mutagenicity, Ames/micronucleus/aberration tests
Test: CCRIS mutagenicity studies
[1] = Test System: AMES SALMONELLA TYPHIMURIUM, Strain/Indicator: TA98, Metabolic Activation: NONE, Method: STANDARD PLATE

Compound: ClC1C(Cl)C(Cl)C(Cl)C(Cl)C1Cl (centres undefined)
- mutagenic call (End Point: IN VITRO CHROMOSOMAL ABERRATIONS, Test System: HUMAN PERIPHERAL BLOOD LYMPHOCYTES, Metabolic Activation: NONE): active; positive (structural changes)
- mutagenic call (Test System: AMES SALMONELLA TYPHIMURIUM, Strain/Indicator: TA97, Metabolic Activation: NONE, Method: STANDARD PLATE): inactive; negative
- mutagenic call (Test System: AMES SALMONELLA TYPHIMURIUM, Strain/Indicator: TA97, Metabolic Activation: RAT, LIVER, S-9, AROCLOR 1254, Method: STANDARD PLATE): inactive; negative
- mutagenic call [1]: inactive; negative
- mutagenic call (Test System: AMES SALMONELLA TYPHIMURIUM, Strain/Indicator: TA100, Metabolic Activation: NONE, Method: STANDARD PLATE): inactive; negative
- mutagenic call (Test System: AMES SALMONELLA TYPHIMURIUM, Strain/Indicator: TA100, Metabolic Activation: RAT, LIVER, S-9, AROCLOR 1254, Method: STANDARD PLATE): inactive; negative
- mutagenic call (Test System: AMES SALMONELLA TYPHIMURIUM, Strain/Indicator: TA102, Metabolic Activation: NONE, Method: STANDARD PLATE): inactive; negative
- mutagenic call (Test System: AMES SALMONELLA TYPHIMURIUM, Strain/Indicator: TA102, Metabolic Activation: RAT, LIVER, S-9, AROCLOR 1254, Method: STANDARD PLATE): inactive; negative
- mutagenic call (Test System: CHINESE HAMSTER OVARY, Strain/Indicator: CHO (HPRT)/6-THIOGUANINE, Metabolic Activation: NONE): inactive; negative
- mutagenic call (Test System: CHINESE HAMSTER OVARY, Strain/Indicator: CHO (HPRT)/6-THIOGUANINE, Metabolic Activation: S-9): inactive; negative
- mutagenic call (Test System: UDS HUMAN HEPATOCYTES, Strain/Indicator: THY INCORP, Metabolic Activation: NONE, Method: AUTORADIOGRAPHY): inactive; negative
- mutagenic call (Test System: UDS MOUSE HEPATOCYTES, Strain/Indicator: THY INCORP, Metabolic Activation: NONE, Method: AUTORADIOGRAPHY): inactive; negative
- mutagenic call (Test System: UDS RAT HEPATOCYTES, Strain/Indicator: THY INCORP, Metabolic Activation: NONE, Method: AUTORADIOGRAPHY): inactive; negative

Compound: O=C1NCCN1c1nccs1
- mutagenic call [1]: active; positive

Compound: c1ccc2c(c1)c1c(c3c4ccccc4c4ccccc4c23)O1
- mutagenic call (Test System: AMES SALMONELLA TYPHIMURIUM, Strain/Indicator: TA98, Metabolic Activation: NONE, Method: PREINCUBATION (KCL-CONTAINING MEDIUM)): active; positive
- mutagenic call (Test System: AMES SALMONELLA TYPHIMURIUM, Strain/Indicator: TA98, Metabolic Activation: NONE, Method: PREINCUBATION (KCL-FREE MEDIUM)): active; positive
- mutagenic call (Test System: AMES SALMONELLA TYPHIMURIUM, Strain/Indicator: TA100, Metabolic Activation: NONE, Method: PREINCUBATION (KCL-FREE OR KCL-CONTAINING MEDIA)): active; positive

Compound: CCCCBr
- mutagenic call (End Point: In vitro micronucleus, Test System: Chinese Hamster Ovary (CHO-WBL) cells, Metabolic Activation: None): inactive; negative
- mutagenic call (Test System: AMES SALMONELLA TYPHIMURIUM, Strain/Indicator: TA100, Metabolic Activation: NONE, Method: DESICCATOR): active; positive
- mutagenic call (Test System: AMES SALMONELLA TYPHIMURIUM, Strain/Indicator: TA100, Metabolic Activation: RAT, LIVER, S-9, AROCLOR 1254, Method: DESICCATOR): active; positive
- mutagenic call (Test System: AMES SALMONELLA TYPHIMURIUM, Strain/Indicator: TA1535, Metabolic Activation: NONE, Method: DESICCATOR): active; positive
- mutagenic call (Test System: AMES SALMONELLA TYPHIMURIUM, Strain/Indicator: TA1535, Metabolic Activation: RAT, LIVER, S-9, AROCLOR 1254, Method: DESICCATOR): active; positive

Compound: CN(C)c1ccc(/C=C/c2ccccc2)cc1
- mutagenic call (Test System: AMES SALMONELLA TYPHIMURIUM, Strain/Indicator: TA98, Metabolic Activation: HAMSTER, LIVER, S-9, AROCLOR 1254, Method: STANDARD PLATE): active; positive
- mutagenic call (Test System: AMES SALMONELLA TYPHIMURIUM, Strain/Indicator: TA98, Metabolic Activation: HAMSTER, LIVER, S-9, Method: PREINCUBATION (PRIVAL METHOD)): active; positive
- mutagenic call (Test System: AMES SALMONELLA TYPHIMURIUM, Strain/Indicator: TA98, Metabolic Activation: RAT, LIVER, S-9, AROCLOR 1254, HAMSTER, LIVER, S-9, AROCLOR 1254, Method: STANDARD PLATE): active; positive
- mutagenic call (Test System: AMES SALMONELLA TYPHIMURIUM, Strain/Indicator: TA98, Metabolic Activation: RAT, LIVER, S-9, KC500 OR PHENOBARBITAL, Method: LIQUID SUSPENSION): active; positive
- mutagenic call (Test System: AMES SALMONELLA TYPHIMURIUM, Strain/Indicator: TA100, Metabolic Activation: HAMSTER, LIVER, S-9, AROCLOR 1254 (10%), Method: STANDARD PLATE): active; positive
- mutagenic call (Test System: AMES SALMONELLA TYPHIMURIUM, Strain/Indicator: TA100, Metabolic Activation: HAMSTER, LIVER, S-9, Method: PREINCUBATION (PRIVAL METHOD)): active; positive
- mutagenic call (Test System: AMES SALMONELLA TYPHIMURIUM, Strain/Indicator: TA100, Metabolic Activation: RAT, LIVER, S-9, AROCLOR 1254, HAMSTER, LIVER, S-9, AROCLOR 1254, Method: STANDARD PLATE): active; positive
- mutagenic call (Test System: AMES SALMONELLA TYPHIMURIUM, Strain/Indicator: TA100, Metabolic Activation: RAT, LIVER, S-9, KC500 OR PHENOBARBITAL, Method: LIQUID SUSPENSION): active; positive
- mutagenic call (Test System: AMES SALMONELLA TYPHIMURIUM, Strain/Indicator: TA100, Metabolic Activation: RAT, LIVER, S-9, PHENOBARBITAL, Method: STANDARD PLATE): active; positive
- mutagenic call (Test System: AMES SALMONELLA TYPHIMURIUM, Strain/Indicator: TA1538, Metabolic Activation: RAT, LIVER, S-9, AROCLOR 1254, HAMSTER, LIVER, S-9, AROCLOR 1254, Method: STANDARD PLATE): active; positive
- mutagenic call (Test System: AMES SALMONELLA TYPHIMURIUM, Strain/Indicator: TA1538, Metabolic Activation: RAT, LIVER, S-9, PHENOBARBITAL, Method: STANDARD PLATE): active; positive
- mutagenic call (Test System: Mouse lymphoma, Strain/Indicator: L5178Y (tk+/tk-), Metabolic Activation: None, Method: Suspension/plate): inactive; inconclusive (pevious evaluation negative)
- mutagenic call (Test System: Mouse lymphoma, Strain/Indicator: L5178Y (tk+/tk-), Metabolic Activation: Rat, Liver, S-9, Aroclor 1254, Method: Suspension/plate): active; positive

Compound: OC[C@H]1O[C@@](CO)(O[C@H]2O[C@H](CO)[C@@H](O)[C@H](O)[C@H]2O)[C@@H](O)[C@@H]1O
- mutagenic call (End Point: IN VITRO CHROMOSOMAL ABERRATIONS, Test System: CHO-WBL CELLS, Metabolic Activation: NONE): active; positive (structural changes); osmolality of solution decisive factor
- mutagenic call (Test System: MOUSE LYMPHOMA, Strain/Indicator: L5178Y (TK+/TK-), Metabolic Activation: NONE, Method: SUSPENSION/PLATE): inactive; negative
- mutagenic call (Test System: MOUSE LYMPHOMA, Strain/Indicator: L5178Y (TK+/TK-), Metabolic Activation: RAT, LIVER, S-9, AROCLOR 1254, Method: SUSPENSION/PLATE): inactive; negative
- mutagenic call (Test System: MOUSE LYMPHOMA, Strain/Indicator: L5178Y (TK+/TK-), Metabolic Activation: RAT, LIVER, S-9, Method: SUSPENSION/PLATE): inactive; negative
